Measurements published in PMC2957295 (Biochemistry, 2010).

Biological target: T1, Fas (Homo sapiens, UniProt P25445)
T1 sequence (P25445 26-335): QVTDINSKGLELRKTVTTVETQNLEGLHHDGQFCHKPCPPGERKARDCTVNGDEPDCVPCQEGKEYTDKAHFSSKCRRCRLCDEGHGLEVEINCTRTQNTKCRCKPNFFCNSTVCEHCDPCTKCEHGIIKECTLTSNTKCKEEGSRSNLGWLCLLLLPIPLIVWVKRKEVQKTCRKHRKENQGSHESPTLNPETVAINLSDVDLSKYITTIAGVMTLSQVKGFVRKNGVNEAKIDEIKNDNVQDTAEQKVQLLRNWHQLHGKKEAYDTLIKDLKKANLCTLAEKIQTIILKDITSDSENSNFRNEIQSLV
Assay: anti-Fas immunoprecipitation of treated cells, Western blot for 4-HNE adduct
Format: cell-based
Conditions: covalent; HepG2 cells, 20 µM 4-HNE, 2 h

## CCCCCC(O)/C=C/C=O (stereo not shown) [4-hydroxy-2-nonenal]
  4-HNE-Fas adduct: shows the presence of Daxx and 4-HNE-Fas adduct
